Assays:
Thermolysin [1] = target: T1, Thermolysin (Bacillus thermoproteolyticus, UniProt P00800); assay: Inhibition of Bacillus thermoproteolyticus thermolysin after 15 mins by microplate spectrophotometric analysis in presence of 0.5 to 2 mM substrate FaGLa
T1 sequence (P00800 whole entry): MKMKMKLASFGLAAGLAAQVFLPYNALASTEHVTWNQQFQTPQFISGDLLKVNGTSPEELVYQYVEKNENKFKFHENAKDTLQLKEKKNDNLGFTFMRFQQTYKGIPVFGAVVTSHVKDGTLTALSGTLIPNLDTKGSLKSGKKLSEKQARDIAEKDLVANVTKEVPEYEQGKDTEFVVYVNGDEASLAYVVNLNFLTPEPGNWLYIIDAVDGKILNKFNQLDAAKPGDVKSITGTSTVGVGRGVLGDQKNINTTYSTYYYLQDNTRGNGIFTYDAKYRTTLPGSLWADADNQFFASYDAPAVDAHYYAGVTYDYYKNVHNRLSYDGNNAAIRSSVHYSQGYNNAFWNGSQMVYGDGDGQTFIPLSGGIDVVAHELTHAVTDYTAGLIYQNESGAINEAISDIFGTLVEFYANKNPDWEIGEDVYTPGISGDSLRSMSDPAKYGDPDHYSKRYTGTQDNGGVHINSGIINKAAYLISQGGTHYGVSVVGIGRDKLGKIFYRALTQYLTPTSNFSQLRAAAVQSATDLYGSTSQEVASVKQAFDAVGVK

Thermolysin [2] = target: T1, Thermolysin; assay: Inhibition of Bacillus thermoproteolyticus thermolysin after 15 mins by microplate spectrophotometric analysis in presence of 1.0 mM substrate FaGLa

O=c1[nH]c(-c2ccc(Cl)cc2)nc2ccccc12
Ki (Thermolysin [1]): 1.25 µM | IC50 (Thermolysin [2]; read-out: IC50): 1.25 µM

CCc1nc2ccccc2c(=O)[nH]1
IC50 (Thermolysin [2]): Not Active

Cc1ccc(-c2nc3ccccc3c(=O)n2CCCN)cc1
IC50 (Thermolysin [2]): Not Active

Nn1c(C(F)(F)F)nc2ccccc2c1=O
Ki (Thermolysin [1]): 37.9 µM | IC50 (Thermolysin [2]; read-out: IC50): 37.9 µM

CC(C)=NN1C(=O)c2ccccc2NC1(C)C
Ki (Thermolysin [1]): 0.243 µM | IC50 (Thermolysin [2]; read-out: IC50): 0.248 µM

O=c1c2ccccc2nc(-c2ccccc2)n1-c1nccs1
IC50 (Thermolysin [2]): Not Active

Nn1c(-c2ccc([N+](=O)[O-])cc2)nc2ccccc2c1=O
Ki (Thermolysin [1]): 3120 µM | IC50 (Thermolysin [2]; read-out: IC50): 3120 µM

Cc1nc2ccccc2c(=O)n1NC(=O)c1ccccc1
IC50 (Thermolysin [2]): Not Active

Cc1ccc(C(=O)Nn2c(C)nc3ccccc3c2=O)cc1
IC50 (Thermolysin [2]): Not Active

NNc1nc2ccccc2c(=O)n1N
IC50 (Thermolysin [2]): Not Active

O=c1[nH]c(-c2ccc([N+](=O)[O-])cc2)nc2ccccc12
IC50 (Thermolysin [2]): Not Active

Cc1cc(C)c(-n2c(-c3ccccc3)nc3ccccc3c2=O)c(C)c1
IC50 (Thermolysin [2]): Not Active

COC(=O)c1ccccc1NC(=O)C(F)(F)F
IC50 (Thermolysin [2]): Not Active

O=C1c2ccccc2NC(c2ccccc2)N1/N=C/c1ccccc1 (stereo unspecified)
IC50 (Thermolysin [2]): Not Active

Nn1c(-c2ccccc2)nc2ccccc2c1=O
IC50 (Thermolysin [2]): Not Active

Cc1ccc(-c2nc3ccccc3c(=O)n2-c2nccs2)cc1
Ki (Thermolysin [1]): 59.3 µM | IC50 (Thermolysin [2]; read-out: IC50): 76.8 µM

CCOC(=O)Cc1nc2ccccc2c(=O)[nH]1
IC50 (Thermolysin [2]): Not Active

Cc1nc2ccccc2c(=O)n1N
Ki (Thermolysin [1]): 54.9 µM | IC50 (Thermolysin [2]; read-out: IC50): 54.9 µM

C/C(=N\n1c(-c2ccccc2)nc2ccccc2c1=O)Nc1cccc2ccccc12
IC50 (Thermolysin [2]): Not Active

Cc1nc2ccccc2c(=O)n1CCO
IC50 (Thermolysin [2]): Not Active

Cc1ccc(-c2nc3ccccc3c(=O)n2CCN)cc1
IC50 (Thermolysin [2]): Not Active

Cc1nc2ccccc2c(=O)n1N=C(N)N
IC50 (Thermolysin [2]): Not Active

CC(=O)Nn1c(-c2ccccc2)nc2ccccc2c1=O
IC50 (Thermolysin [2]): Not Active

O=c1c2ccccc2nc(C(F)(F)F)n1-c1ccccc1
Ki (Thermolysin [1]): 0.0115 µM | IC50 (Thermolysin [2]; read-out: IC50): 0.0115 µM

CO/C(C)=N/n1c(-c2ccccc2)nc2ccccc2c1=O
Ki (Thermolysin [1]): 106000 µM | IC50 (Thermolysin [2]; read-out: IC50): 123000 µM

Nn1c(-c2ccc(Cl)cc2)nc2ccccc2c1=O
Ki (Thermolysin [1]): 10100 µM | IC50 (Thermolysin [2]; read-out: IC50): 12700 µM

O=c1c2ccccc2nc(-c2ccccc2)n1-c1ccc(I)cc1
IC50 (Thermolysin [2]): Not Active

CC(=O)Nn1c(C)nc2ccccc2c1=O
IC50 (Thermolysin [2]): Not Active

Cc1nc2ccccc2c(=O)n1NC(=O)CCl
IC50 (Thermolysin [2]): Not Active

O=C(Nc1ccccc1C(=O)NCCCn1c(-c2ccccc2)nc2ccccc2c1=O)c1ccccc1
IC50 (Thermolysin [2]): Not Active

O=c1c2ccccc2ncn1CCO
IC50 (Thermolysin [2]): Not Active

O=c1c2ccccc2nc2n1NC(c1ccccc1)N(/N=C/c1ccccc1)C2 (stereo unspecified)
IC50 (Thermolysin [2]): Not Active

From ChEMBL document CHEMBL1165981, “Identification of novel quinazolin-4(3H)-ones as inhibitors of thermolysin, the prototype of the M4 family of proteinases” (Bioorg Med Chem, 2010)
